Test results reported in US10828250B2, “Topical formulation” (LIMEWAY PHARMA DESIGN LIMITED, priority 2015, dated 2020).

Assays:
[1] = saturated solubility of corticosteroids in liquid silicones and in propylene glycol:glycerol(:water) mixtures; format: physicochemical; details: for saturated solubility in propylene glycol:glycerol mixtures: as glycerol is added to propylene glycol, FIG. 8; for saturated solubility in propylene glycol:glycerol:water mixtures: as water is added to propylene glycol:glycerol 70:30, FIG. 9; for saturated solubility in liquid silicones: range of liquid silicones including caprylyl methicone, FIG. 1
Description: Similarly, active solubility may be reduced in the non-volatile residual phase. […] As glycerol is added to propylene glycol the solubility of FP and MF decreases. […] As water is added to propylene glycol:glycerol 70:30 the solubility of FP and MF decreases. Water may be present in certain embodiments of the formulation or may be present in the residual phase due to uptake of transepidermal water. Although water is a highly volatile solvent, humectant glycols retain water depending upon ambient conditions.

[2] = format: physicochemical
From the text: As described previously, diffusion coefficient-enhancing excipients (DC enhancers) for use in the present invention commonly comprise alcohol, acid or ester derivatives of C8-C22 hydrocarbons.
In the acid and alcohol series, FIG. 2, as carbon chain length increases, solubility in caprylyl methicone decreases to less than 0.1% w/w at C18, such that these higher carbon chain lengths may be considered unsuitable for use as the DC enhancer in the formulation of the present invention owing to low solubility-dissolution constraints. Conversely, lower carbon chain length acids and alcohols such as C8 and C10 alcohols and C8 and C10 acids may be considered to be far too soluble in hydrocarbyl methyl siloxanes including caprylyl methicone, such that their performance as diffusion coefficient-enhancing excipients would be adversely affected. Similarly, long chain (for instance C14-C16) isopropyl esters are far too soluble in hydrocarbyl methyl siloxanes such as caprylyl methicone to allow performance as DC enhancers. For both of these classes of DC enhancer, up to 50% DC enhancer would be required to be at or near saturation in the non-volatile residual phase. In contrast, the C12-C14 acids and C12 alcohol have appropriate solubility in caprylyl methicone.
Conversely, from C16-C22 solubility is too low to allow adequate performance. […]

Compound	saturated solubility in propylene glycol:glycerol mixtures [1]	saturated solubility in propylene glycol:glycerol:water mixtures [1]	saturated solubility in liquid silicones [1]	amount to saturate caprylyl methicone (solubility) [2] [%]	amount to saturate propylene glycol (solubility) [2] [%]
CCC(=O)O[C@]1(C(=O)SCF)[C@H](C)C[C@H]2[C@@H]3C[C@H](F)C4=CC(=O)C=C[C@]4(C)[C@@]3(F)[C@@H](O)C[C@@]21C [fluticasone propionate]	decreases	decreases	appropriately low	–	–
C[C@@H]1C[C@H]2[C@@H]3CCC4=CC(=O)C=C[C@]4(C)[C@@]3(Cl)[C@@H](O)C[C@]2(C)[C@@]1(OC(=O)c1ccco1)C(=O)CCl [mometasone furoate]	decreases	decreases	appropriately low	–	–
myrystyl alcohol [C14 alcohol]	–	–	–	2.30	2.44
